# Experimental data as given in ChEMBL document CHEMBL1127360, “Antipodal alpha-N-(methyl through decyl)-N-normetazocines (5,9 alpha-dimethyl-2'-hydroxy-6,7-benzomorphans): in vitro and in vivo properties” (J Med Chem, 1994).
# Calls of active or inactive are those of the source. The rule behind the calls is not given here.
# Columns and labels:
# Glutamate NMDA receptor = assay: Inhibition using [3H]TCP in homogenate of rat brain; format: tissue-based
# Mus musculus [1] = assay: In vivo antinociceptive activity at 10 mg/kg was tested through injecting 2 mg/kg ip phenylquinone, activity calculated by total number of abdominal-stretches per group counted over a 1 min period; format: functional
# Mus musculus [2] = assay: In vivo for its narcotic antagonistic activity of the antinociceptive effect in mouse; format: functional, organism-based
# Mus musculus [3] = assay: In vivo antinociceptive activity was tested through tail flick (TF) with this compound in mouse at 30 mg/kg concentration; format: functional
# Mu-type opioid receptor = Mu-type opioid receptor (Rattus norvegicus, UniProt P33535); assay: Inhibition against mu receptor using [3H]DAMGO in homogenate of rat brain cerebellum; format: tissue-based
# Sequence of Mu-type opioid receptor (P33535 whole entry): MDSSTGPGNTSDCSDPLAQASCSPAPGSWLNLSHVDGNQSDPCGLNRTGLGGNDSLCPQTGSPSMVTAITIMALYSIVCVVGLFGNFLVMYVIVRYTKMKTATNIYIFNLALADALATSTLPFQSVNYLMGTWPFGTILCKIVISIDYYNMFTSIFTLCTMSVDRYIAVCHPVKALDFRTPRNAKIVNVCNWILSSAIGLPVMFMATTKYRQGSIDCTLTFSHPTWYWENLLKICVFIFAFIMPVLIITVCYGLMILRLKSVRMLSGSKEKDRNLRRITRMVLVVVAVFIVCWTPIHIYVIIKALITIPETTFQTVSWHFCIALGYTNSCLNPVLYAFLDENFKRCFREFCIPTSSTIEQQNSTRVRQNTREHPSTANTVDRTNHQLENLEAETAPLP
# Mus musculus [4] = assay: In vivo antinociceptive activity at 10 mg/kg was tested through hot plate (HP) by placing mouse on hot plate, and calculating number of times it jumps or licks its paw in 5 seconds; format: functional
smiles,measurement,setting,value
C[C@@H]1C2Cc3ccc(O)cc3[C@]1(C)CCN2,Ki,Glutamate NMDA receptor,0.03 µM
same,Inhibition,Mus musculus [1],23%
same,Activity,Mus musculus [2],inactive
same,inhibition in vivo at 30 mg/kg,Mus musculus [3],27%
same,Ki,Mu-type opioid receptor,0.47 µM
same,inhibition in vivo at 10 mg/kg,Mus musculus [4],13%
